A short description of data set [1]: method code SF-AS, from DOI: 10.1016/0006-2952(75)90156-2, PMID: 235934. Particulars: pH 7.4.
A short description of data set [2]: method code SF-RC, from DOI: 10.1002/qsar.19880070404. Particulars: pH 0.0.
Data set [3] in a line: method code SF, from DOI: 10.1007/s00253-012-4358-8, PMID: 23081771. Particulars: pH 7.0.
Experiment in data set [4]: not given
This is another data set of the same source.

Experiment in data set [5]: not given
This is another data set of the same source.

Experiment in data set [6]: not given
The source holds these as a separate data set.

Experiment in data set [7]: not given
This is another data set of the same source.

Experiment in data set [8]: not given
This is another data set of the same source.

Data set [9] is described as follows: method code SF, from DOI: 10.1080/09553009014551091, PMID: 1970998. Particulars: pH 7.4.
Data set [10] can be described thus: method code SF, from DOI: 10.1021/jm00111a036, PMID: 2066990.
Experiment in data set [11]: not given
The source holds these as a separate data set.

Data set [12] in a line: method code SF-AS, from Korenman, I.; Nefedova, E.; Dyukova, I. (1977). Extraction of picramic acid. Int J Clin Pharmacol Ther Toxicol, 51(5)734-735. Particulars: pH 7.4.
The nature of data set [13]: method code SF-AS, from DOI: 10.1080/09553007214550551, PMID: 4537457.
Data set [14] is described as follows: method code SF, from DOI: 10.1021/js9601804, PMID: 9344176. Particulars: pH 8.0.
Data set [15] in a line: method code SF-AS, from DOI: 10.1016/0014-2999(86)90191-3, PMID: 3780854. Particulars: pH 7.4.
The nature of data set [16]: method code SF-AS, from DOI: 10.1021/jm00304a030, PMID: 5793164. Particulars: pH 7.4.
Experiment in data set [17]: not given
The source holds these as a separate data set.

A short description of data set [18]: method code SF-AS, from DOI: 10.1021/jm00307a001, PMID: 5637185.
Data set [19] in a line: method code SF-HPLC, from DOI: 10.1002/ps.2780370106. Particulars: pH 0.0.
Data set [20] is described as follows: method code SF-HPLC, from DOI: 10.1007/bf03246517.
Experiment in data set [21]: not given
The source holds these as a separate data set.

Experiment in data set [22]: not given
This is another data set of the same source.

Data set [23] in a line: method code SF, from PMID: 15170. Particulars: pH 5.0.
Experiment in data set [24]: not given
This is another data set of the same source.

For data set [25] the following is noted: pH 1.0.
Data set [26] in a line: method code SF-ESR, from DOI: 10.1111/1523-1747.ep12319780, PMID: 2551971. Particulars: pH 7.0.
The nature of data set [27]: method code SF, from DOI: 10.1002/jps.2600641111, PMID: 1195110. Particulars: pH 7.4.
Data set [28] can be described thus: method code SF-AS, from PMID: 2748530.
Data set [29] can be described thus: method code SF-AS, from DOI: 10.1016/0022-1902(68)80266-0. Particulars: pH 4.0.
Data set [30] can be described thus: method code SF, from DOI: 10.1248/cpb.42.1525, PMID: 7923475.
Experiment in data set [31]: not given
This is another data set of the same source.

Data set [32] in a line: method code SF-HPLC, from DOI: 10.1002/jps.2600810507, PMID: 1403673.
Experiment in data set [33]: not given
This is another data set of the same source.

A short description of data set [34]: method code SF, from Kruglik, P.; Leschev, M.; Rakhman'ko, M.; Bubel, N.; Asratyan, V. (1991). Extraction of 1,2,4-triazole and its derivatives by organic solvents. 64(8)1721-1724.
Experiment in data set [35]: not given
This is another data set of the same source.

Data set [36] is described as follows: method code SF, from DOI: 10.1248/yakushi1947.99.3_235. The following applies: pH 11.0.
Data set [37] is described as follows: method code SF, from DOI: 10.1007/bf00253009, PMID: 7273265. The following applies: pH 7.4.
Data set [38] is described as follows: method code SF-HPLC, from PMID: 1880579. The following applies: pH 7.4.
The nature of data set [39]: method code SF-AS, from Korenman, Y.; Sotnikova, G. (1975). Extraction of vanillins from aqueous solutions. Zh. Prikl. Khim., 48(1)188-191.
Data set [40] can be described thus: method code SF-RC,FL, from DOI: 10.1016/0006-2952(81)90006-x, PMID: 6456004.
Experiment in data set [41]: not given
This is another data set of the same source.

Data set [42] can be described thus: method code SF-AS, from DOI: 10.1016/s0006-3495(76)85671-8, PMID: 1247644. The following applies: pH 8.0.
Data set [43] is described as follows: method code SF-AS, from DOI: 10.1111/j.2042-7158.1989.tb06484.x, PMID: 2570835.
Data set [44] is described as follows: method code SF, from DOI: 10.1246/bcsj.60.4357.
Data set [45] can be described thus: method code SF-RC, from DOI: 10.1016/s0969-8051(98)00005-5, PMID: 9720665. Particulars: pH 7.0.
Data set [46] is described as follows: method code SF-RC, from DOI: 10.1016/0006-2952(81)90006-x, PMID: 6456004.
Data set [47] can be described thus: method code SF-GLC, from Park, Y.; Park, S. (2000). Determination and prediction of octanol/water partition coefficients and air-water partition coefficients for environmental toxic chemicals. 11(7)773-779.

Molecules are shown by their SMILES.

In turn, `CCCCCCC` returned a logP of 4.48. Regarding `CCOc1ccc([N+](=O)[O-])cc1`, the logD in data set [1] was determined as 2.53. As to `O=C(O)Cc1ccccc1I`, in data set [2], the logD was 2.33.

Consider `C=Cc1ccc(O)cc1`, for which the logD in data set [3] was 2.36. `O=C(NCCO[N+](=O)[O-])c1cccnc1` returned a logP in [4] of -1.02.

Molecule `O=[N+]([O-])c1nccn1C1OCC(I)CC1F` (stereo not drawn) came in with a logP in data set [5] of 0.8. On to `O=S(=O)(CS(=O)(=O)C(F)(F)F)c1ccc(Cl)c(Cl)c1`, for which the logP in data set [6] was determined as 1.7. In the case of `O=C(Cn1ccnc1[N+](=O)[O-])NCC(F)(F)C(F)(F)F`, the logP in data set [7] worked out at 0.76. As to `O=[N+]([O-])c1nccn1[C@H]1O[C@H](CF)[C@@H](O)[C@@H]1O`, the logP in data set [8] amounted to 0.04. Take `O=[N+]([O-])c1nccn1COC(CO)CO`: the logD in data set [9] was -1.03. Molecule `O=[N+]([O-])c1nccn1CC(O)C/C=C/I` (stereo not drawn) displayed a logP in [10] of 0.4. Regarding `CC(C)(C)c1cn2nc(S(N)(=O)=O)sc2n1`, in data set [11], the logP came out at 2.15. Molecule `CC(C)c1cnc([N+](=O)[O-])n1C` displayed a logD in [12] of 1.09. Regarding `CC(=O)c1ccc(Cl)cc1`, the logP in [13] was found to be 2.35. As to `O=C1COc2ccccc2N1`, the logD in data set [14] was found to be 1.31. `COc1noc2c1CN(C)CC2` registered a logD in [15] of 0.4. For `Brc1ccc2[nH]ccc2c1`, the logD in data set [16] is 3. Molecule `CO[C@@H]([C@H](O)[C@H](O)CO)[C@@H](O)C=O` had a logP in data set [17] of -3.

For `C#CC1(O)CCCCC1`, the logP in data set [18] was found to be 1.73. Turning to `Cc1c(F)c(F)c(C(=O)O)c(F)c1F`, the logD in data set [19] turned out to be 3.15. Consider `OCCc1ccc(O)cc1`, for which the logP in [20] stood at 0.69. Consider `CCC1C(=O)NC(=O)N(C)C1=O` (stereo not drawn), for which, in data set [21], the logP came out at 0.15. Molecule `CCCn1cnc2c(N)ncnc21` had a logP in [22] of 0.74. Regarding `CCC1(CC)C(=O)NC(=O)NC1=O`, in [23], the logD was found to be 0.71.

`CCC(CC)C(=O)NC(N)=O` gave a logP in data set [24] of 0.91. Molecule `O=C(O)Cc1c(Cl)ccc(Cl)c1Cl` returned a logD in data set [25] of 3.2.

For `CC1(C)COC(C)(C)N1O`, the logD in data set [26] came to 0.48. For `CC(=O)NCCn1c([N+](=O)[O-])cnc1C`, the logD in data set [27] is -0.47. In the case of `O=[N+]([O-])c1nccn1CC(O)COCC(F)(F)F` (stereo not drawn), the logP in data set [28] came to 0.46. As to `O=C(CC(=O)C(F)(F)F)c1cccs1`, the logD in data set [29] was 1.46. Molecule `COC(=O)c1ccccc1` returned a logP in [30] of 2.09. In [31], `O=C1NC(=O)c2ccccc21` came in with a logP of 1.04. The molecule `O=C(O)c1ccc(C(=O)O)cc1` showed a logP in data set [32] of 1.68.

For the molecule `COc1nc(C(Cl)(Cl)Cl)c(Cl)c(OC)c1Cl`, the logP in data set [33] came out at 5.48. `CC(C)CCn1cnc([N+](=O)[O-])n1` returned a logP in [34] of 1.26. As to `CCOc1ccccc1O`, the logP in data set [35] is 1.91. For the molecule `OCCC1CCCCN1` (stereo not drawn), the logD in data set [36] is 0.11. The molecule `O=C(Cn1ccnc1[N+](=O)[O-])N(CO)CO` came in with a logD in data set [37] of -1.59.

`O=[N+]([O-])c1nccn1C1OC(CI)C(O)C1O` (stereo not drawn) yielded a logD in data set [38] of 0.7. With `COc1ccc(C=O)cc1O`, in [39], the logP is 0.97. In turn, `NCCc1ccc(O)cc1` gave a logP in data set [40] of -0.24.

Turning to `Cc1ccccc1C`, the logP in data set [41] was 3.29. In [42], `Cc1nc2c(Cl)c(Cl)c(Cl)c(Cl)c2[nH]1` gave a logD of 2.83. In data set [43], `O=c1[nH][nH]c(=O)c2ccccc12` returned a logP of 0.11. Consider `CCc1cc([N+](=O)[O-])cc([N+](=O)[O-])c1O`, for which the logP in [44] is 2.67. Turning to `OC1OC2COC(CI)OC2C(O)C1O` (stereo not drawn), the logD in [45] came to 1.1. On to `NCCc1ccccc1`, for which, in data set [46], the logP turned out to be 1.16. As to `CC(=O)OCCC(C)C`, the logP in [47] was 2.55.

The record behind these values is the SangsterLogP compilation.
